BindingDB's records for doi:10.1021/acs.jnatprod.5b00540 (Toyama Prefectural University, 2015)
pIC50: −log10 of the molar value. Numbered stars: 1 amine (or outer) side, 2 acyl side, 3 side chain; on linkers, the order of the positions; unused ones are H or OH. Bridge positions count the residues as written; N and C are the ends. Square brackets hold non-standard residues; d marks the D form. Peptide text beside a SMILES is read from it. * marks the point of attachment. Cinnamoyl(2-(1Z-pentenyl)) = CCC/C=C\c1ccccc1/C=C/C(=O)*; X1 = CN(/C(=C/c1ccc(O)cc1)C(=O)[*:2])[*:1]; aThr = C[C@H](O)[C@H](N)C(=O)O

Molecular target: T1, Accessory gene regulator protein A (Staphylococcus aureus, UniProt P0A0I7)
T1 sequence (P0A0I7 whole entry): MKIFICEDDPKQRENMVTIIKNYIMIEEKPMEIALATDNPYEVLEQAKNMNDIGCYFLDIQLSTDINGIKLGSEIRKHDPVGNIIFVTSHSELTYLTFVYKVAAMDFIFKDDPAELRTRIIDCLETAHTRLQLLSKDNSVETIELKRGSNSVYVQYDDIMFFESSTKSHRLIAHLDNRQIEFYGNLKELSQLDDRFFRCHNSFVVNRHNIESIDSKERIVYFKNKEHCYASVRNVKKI
Assay: Inhibition of agr-mediated quorum sensing in Staphylococcus aureus after 5 hrs by luminescence analysis

Compound | pIC50
CCC/C=C\c1ccccc1/C=C/C(=O)N[C@@H]1C(=O)N(C)/C(=C/c2ccc(O)cc2)C(=O)N[C@@H](CC(C)C)C(=O)N[C@H](Cc2ccccc2)C(=O)N[C@@H]([C@H](C)O)C(=O)N[C@@H](CC(N)=O)C(=O)N[C@@H](CO)C(=O)O[C@@H]1C ({Cinnamoyl(2-(1Z-pentenyl))}-T[X1]L[dF][aThr]NS; ester 1-C) | 5.60
C[C@H]1NC(=O)[C@@H](Cc2ccccc2)N(C)C(=O)[C@@H]2CCCN2C(=O)c2ccccc2NC(=O)[C@H](Cc2ccccc2)NC1=O | 5.36
CC(C)[C@@H]1NC(=O)C[C@H](/C=C/c2ccccc2)OC(=O)[C@H](C(C)C)NC(=O)[C@H](C(C)C)NC(=O)[C@@H](C)NC1=O | 6.52
CC[C@H](C)[C@@H]1NC(=O)[C@@H](C)NC(=O)[C@H](C(C)C)NC(=O)C[C@H](/C=C/c2ccccc2)OC(=O)[C@H](C(C)C)NC1=O [CHEBI:67522] | 6.10
